Experimental data from US9902709B2, “Polysubstituted pyridine compound, preparation method, use and pharmaceutical composition” (PEKING UNIVERSITY FOUNDER GROUP CO., LTD., priority 2014, dated 2018).

Tests used:
[1] = tested on: human colon cancer HCT-116 transplantation; assay: Effect on tumor weight of human colon cancer HCT-116 transplantation nude mice (Comparative Experiment Example 2); format: in vivo; settings: QD × 17 day, sorafenib as p-toluenesulfonate, FD-1210005 free form
Source text: Comparative Experiment Example 2
Under aseptic conditions, the well grown human HCT-116 cell suspension in logarithmic growth phase was used to inoculate nude mouse at axillary cavity of right forelimb subcutaneously via an injector. The tumor growth state was observed regularly until the tumor grew to a volume of 100˜300 mm^3.
48 Tumor-bearing mice with a tumor volume of 100˜300 mm^3 were selected and divided into 6 groups, which were 1 solvent control group, 3 positive control groups, and 2 test sample groups. Both the positive control group and the test sample group were administered intragastrically once a day; the solvent control group was administered with 12.5% ethanol & 12.5% water solution of polyoxyethylene castor oil once a day; intragastrical volume was 10 mL/kg.
In the period of administration, tumor diameter was measured twice every week, tumor volume was calculated, and animal body weight was recorded. Animal state was observed when administered, and abnormal state was recorded.
Animal was sacrificed with CO2, and tumor mass was peeled off, weighed, and photographed. After photographed, each tumor mass was cut into two parts, wherein one was stored in 4% paraformaldehyde, and the other was packaged into a freezing tube, and frozen in liquid nitrogen. Animal was subjected to gross anatomy, and organs were observed by eyes to find if they were normal or not.
Observation Indexes: Tumor weight inhibiting rate (IR)=(WC−WT)/WC
wherein WC and WT represented the average tumor weight of solvent control group and the average tumor weight of drug administration group, respectively.
Experimental data was subjected to calculation and relevant statistic processing by Microsoft Office Excel 2003 software. Unless otherwise specified, data was represented as Mean±Standard Error (Mean±S.E.), and t-test is used in the comparison between two groups.

[2] = tested on: 786-O humanized renal clear cell xenograft; assay: Tumor-inhibiting effect on 786-O xenograft tumor-bearing mice (Experimental Example 4); format: in vivo, SCID-Beige nude mice; settings: QD × 14 days, free form; for TGI: from tumor weight
Protocol: 786-O cells were cultured in RPMI-1640 culture medium containing inactivated 10% fetal bovine serum, 100 Um′ penicillin and 100 μg/ml streptomycin as well as 2 mM glutamine in an incubator at 37° C., 5% CO2. During cell culture, the initial concentration was 5×10^5 cells/ml, and the cells were separated into other bottles every 3 to 4 days when the cells reached a cell density of 100%. The tumor cells in logarithmic growth phase were used in tumor inoculation in vivo.
Female SCID-Beige nude mice (SPF grade) was inoculated subcutaneously at right lateral thorax with 786-O tumor cells re-suspended in PBS at 8×10^6 cells/0.1 ml. When the tumor grew into a volume of 800 mm^3, under aseptic conditions, tumor was peeled off. The well grown tumor tissues were cut into tumor mass with a size of 2×2×2 mm^3, and then were used to inoculate animal subcutaneously. When the tumor grew to a volume of about 100 mm^3, the mice were grouped and administered, 5 groups in total, 8 mice per group.
The volume of tumor was measure by using Vernier caliper twice a week. The long diameter and short diameter of tumor were measured. The volume was calculated by the formula: volume=0.5×long diameter×short diameter^2. After the final measurement, the animal was sacrificed and the tumor was peeled off and weighed. Based on the tumor weight of each group, tumor growth-inhibiting rate (TGI) was calculated. […] The data was effectiveness when TGI≧60% and p<0.05 by statistical analysis.

In the case of CNC(=O)c1cc(Oc2ccc(NC(=O)Nc3ccc(Cl)c(C(F)(F)F)c3)cc2)ccn1 [Comparative example 1, Sorafenib, reference compound], the “Tumor weight Mean ± S.E” value ([1]; 20 mg/kg Ig) is reported as 0.5628 ± 0.0617 g, the Tumor-inhibiting rate ([1]; 20 mg/kg Ig) is reported as 43.28% and the “Tumor weight Mean ± S.E” value ([1]; 60 mg/kg Ig) is reported as 0.4409 ± 0.0857 g. For the same compound, the Tumor-inhibiting rate ([1]; 60 mg/kg Ig) was 55.57%.

With Cn1cc(-c2nccc(Oc3ccc(NC(=O)Nc4ccc(Cl)c(C(F)(F)F)c4)cc3)c2Cl)cn1 [Example 2, 1-(4-chloro-3-(trifluoromethyl)phenyl)-3-(4-(3-chloro-2-(1-methyl-pyrazol-4-yl)-pyridin-4-yl-oxy)phenyl)urea] the “Tumor weight Mean ± S.E” value ([2]; 10 mg/kg po) was 37 ± 20 mg, the TGI ([2]; 10 mg/kg po) was 82% and the “Tumor weight Mean ± S.E” value ([2]; 20 mg/kg po) was 32 ± 15 mg. The TGI ([2]; 20 mg/kg po) was 85%, the “Tumor weight Mean ± S.E” value ([2]; 40 mg/kg po) was 16 ± 12 mg and the TGI ([2]; 40 mg/kg po) was 92%.
